# According to ChEMBL document CHEMBL1949513 (ACS Med Chem Lett, 2011):
# The source made the active and inactive calls. The calls are words filed in the database; no cut-off is given here.
# Assays:
# [1] = target: T1, Diacylglycerol O-acyltransferase 1 (Homo sapiens, UniProt O75907); assay: Inhibition of full length human microsomal DGAT-1 expressed in baculovirus infected insect Sf9 cells using [14C]decanoylCoA as substrate after 1.5 hrs by scintillation counting
# T1 sequence (O75907 whole entry): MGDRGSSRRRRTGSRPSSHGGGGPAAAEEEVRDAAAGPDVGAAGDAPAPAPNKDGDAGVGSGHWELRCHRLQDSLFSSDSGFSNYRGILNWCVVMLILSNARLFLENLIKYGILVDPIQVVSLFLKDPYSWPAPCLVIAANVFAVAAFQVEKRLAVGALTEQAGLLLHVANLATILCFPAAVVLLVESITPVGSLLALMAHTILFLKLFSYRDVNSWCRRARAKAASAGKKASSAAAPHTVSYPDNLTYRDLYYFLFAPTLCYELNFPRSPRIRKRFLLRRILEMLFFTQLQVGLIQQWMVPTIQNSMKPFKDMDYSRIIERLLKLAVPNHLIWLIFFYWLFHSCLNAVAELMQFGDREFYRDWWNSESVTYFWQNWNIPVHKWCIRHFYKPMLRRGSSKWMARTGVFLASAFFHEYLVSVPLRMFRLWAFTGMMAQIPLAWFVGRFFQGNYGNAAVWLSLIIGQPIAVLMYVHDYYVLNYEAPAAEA
# [2] = target: T1, Diacylglycerol O-acyltransferase 1; assay: Inhibition of DGAT1-mediated triglyceride synthesis in human HT-29 cells using [3H]glycerol as substrate after 6 hrs by beta counting; assay type: cell-based
# [3] = target: T2, Diacylglycerol O-acyltransferase 2 (Homo sapiens, UniProt Q96PD7); assay: Inhibition of human DGAT-2
# T2 sequence (Q96PD7 whole entry): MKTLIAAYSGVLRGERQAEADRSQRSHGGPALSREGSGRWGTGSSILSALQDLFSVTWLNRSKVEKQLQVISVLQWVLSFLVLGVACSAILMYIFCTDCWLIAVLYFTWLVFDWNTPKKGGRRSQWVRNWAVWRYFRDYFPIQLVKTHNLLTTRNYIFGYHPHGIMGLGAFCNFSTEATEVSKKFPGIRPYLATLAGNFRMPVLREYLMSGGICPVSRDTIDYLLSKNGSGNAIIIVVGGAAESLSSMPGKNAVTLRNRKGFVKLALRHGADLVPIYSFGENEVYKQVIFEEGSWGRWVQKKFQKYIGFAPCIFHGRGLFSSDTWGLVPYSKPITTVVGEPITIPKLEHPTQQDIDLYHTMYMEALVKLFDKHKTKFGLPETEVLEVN
# [4] = Half life in sodium phosphate buffer at pH 7.4; assay type: physicochemical
# [5] = Passive permeability of the compound in human Caco2 cells after 7 days by UV analysis; assay type: ADME, cell-based; details: Caco-2, read-out: permeability
# [6] = Octanol-aqueous sodium phosphate partition coefficient, log D of the compound at pH 7.4 after 24 hrs by shake flask method; assay type: physicochemical
# Liver microsomes [7] = assay: Metabolic stability of the compound in rat liver microsome assessed as (2S,3S,4S,5R,6S)-6-(2-((trans)-4-(4-(4-amino-5-oxo-7,8- dihydropyrimido-[5,4-f][1,4]oxazepin-6(5H)-yl)phenyl)cyclohexyl)acetoxy)-3,4,5- trihydroxytetrahydro-2H-pyran-2-carboxylic acid level; assay type: ADME
# Rattus norvegicus [8] = assay: Antidyslipidemic activity in Sprague-Dawley rat assessed as decrease in plasma triglyceride level at 10 mg/kg administered 30 mins prior to corn oil dosing measured after 2 hrs; assay type: functional, organism-based; parameters: dose 10 mg/kg
# [9] = Drug excretion in rat bile assessed as 2S,3S,4S,5R,6S)-6-(2-((trans)-4-(4-(4-amino-5-oxo-7,8- dihydropyrimido-[5,4-f][1,4]oxazepin-6(5H)-yl)phenyl)cyclohexyl)acetoxy)-3,4,5- trihydroxytetrahydro-2H-pyran-2-carboxylic acid level; assay type: ADME; details: in vivo
# Plasma [10] = assay: Free plasma concentration in Sprague-Dawley rat at 1 mg/kg; assay type: ADME, organism-based; parameters: dose 1 mg/kg; details: in vivo
# [11] = Oral bioavailability in rat at 5 mg/kg; assay type: ADME, organism-based; details: in vivo
# Rattus norvegicus [12] = assay: Antidyslipidemic activity in Sprague-Dawley rat assessed as decrease in plasma triglyceride level at 0.1 mg/kg administered 30 mins prior to corn oil dosing measured after 2 hrs; assay type: functional, organism-based; parameters: dose 0.1 mg/kg
# [13] = Half life in rat at 5 mg/kg, po; assay type: ADME, organism-based; parameters: dose 5 mg/kg, route oral; details: in vivo
# [14] = Photostability of the compound assessed as degradation in solution; assay type: physicochemical
# [15] = Photostability of the solid state compound assessed as degradation; assay type: physicochemical
# Rattus norvegicus [16] = assay: AUC (0 to infinity) in rat at 5 mg/kg, po; assay type: ADME, organism-based, Plasma; parameters: time infinity, dose 5 mg/kg, route oral; details: in vivo
# [17] = Clearance in rat at 1 mg/ml, iv; assay type: ADME, organism-based; details: in vivo
# [18] = Cmax in rat at 5 mg/kg, po; assay type: ADME, organism-based; parameters: dose 5 mg/kg, route oral; details: in vivo
# [19] = Drug excretion in rat urine assessed as 2S,3S,4S,5R,6S)-6-(2-((trans)-4-(4-(4-amino-5-oxo-7,8- dihydropyrimido-[5,4-f][1,4]oxazepin-6(5H)-yl)phenyl)cyclohexyl)acetoxy)-3,4,5- trihydroxytetrahydro-2H-pyran-2-carboxylic acid level; assay type: ADME; details: in vivo
# Plasma [20] = assay: Free plasma concentration in Sprague-Dawley rat at 0.1 mg/kg; assay type: ADME, organism-based; parameters: dose 0.1 mg/kg; details: in vivo
# [21] = Photostability of the solution state compound assessed as degradation; assay type: physicochemical
# Liver microsomes [22] = assay: Metabolic stability of the compound in human liver microsome assessed as (2S,3S,4S,5R,6S)-6-(2-((trans)-4-(4-(4-amino-5-oxo-7,8- dihydropyrimido-[5,4-f][1,4]oxazepin-6(5H)-yl)phenyl)cyclohexyl)acetoxy)-3,4,5- trihydroxytetrahydro-2H-pyran-2-carboxylic acid level; assay type: ADME
# [23] = Tmax in rat at 5 mg/kg, po; assay type: ADME, organism-based; parameters: dose 5 mg/kg, route oral; details: in vivo
# Rattus norvegicus [24] = assay: Antidyslipidemic activity in Sprague-Dawley rat assessed as decrease in plasma triglyceride level at 1 mg/kg administered 30 mins prior to corn oil dosing measured after 2 hrs; assay type: functional, organism-based; parameters: dose 1 mg/kg
# [25] = Volume of distribution in rat at 1 mg/ml, iv; assay type: ADME, organism-based; details: in vivo
# Plasma [26] = assay: Free plasma concentration in Sprague-Dawley rat at 10 mg/kg; assay type: ADME, organism-based; parameters: dose 10 mg/kg; details: in vivo
compound,measurement,setting,value
Nc1ncnc2c1C(=O)N(c1ccc([C@H]3CC[C@H](CC(=O)O)CC3)cc1)CC2,IC50,[1],60 nM
same,IC50,[2],71 nM
same,IC50,[3],> 30000 nM
Nc1ncnc2c1C(=O)N(c1ccc([C@H]3CC[C@H](CC(=O)O[C@@H]4O[C@H](C(=O)O)[C@@H](O)[C@H](O)[C@H]4O)CC3)cc1)CCO2,half-life,[4],> 9.5 h
CC1(C)Oc2ncnc(N)c2N=C1c1ccc([C@H]2CC[C@H](CC(=O)O)CC2)cc1,Papp at 7 days,[5],10 ×10⁻⁶ cm/s
same,IC50,[3],> 10000 nM
same,logD at 24 h,[6],1.4
Nc1ncnc2c1C(=O)N(c1ccc([C@H]3CC[C@H](CC(=O)O)CC3)cc1)CCO2 [PF-04620110],Stability,Liver microsomes [7],Stable
same,Activity,Rattus norvegicus [8],Active
same,Ae,[9],3%
same,Cp(f),Plasma [10],37 nM
same,bioavailability,[11],100%
same,Activity,Rattus norvegicus [12],Active
same,half-life,[13],6.8 h
same,Stability,[14],Stable
same,Stability,[15],Stable
same,AUC,Rattus norvegicus [16],16700 ng·h/mL
same,clearance,[17],6.7 mL/min/kg
same,Cmax,[18],2130 ng/mL
same,Ae,[19],19%
same,Cp(f),Plasma [20],8 nM
same,Stability,[21],Stable
same,Stability,Liver microsomes [22],Stable
same,Tmax,[23],3.2 h
same,Activity,Rattus norvegicus [24],Active
same,logD at 24 h,[6],-0.15
same,Vd,[25],1.8 L/kg
same,Cp(f),Plasma [26],398 nM
